Laboratory results from the supplement of paper PMC10307832.

Columns and labels:
Assay in all cases: relative viability (nuclei count vs DMSO), 5 days (fraction); higher = more cells survive
EMC-BAC-2 = system: EMC-BAC-2
How it was run: (§1)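 A single step with final 0.05% Triton X-100, 1% formaldehyde and 1 ug/ml Hoechst fixed the cells and stained nuclei 5 days after treatment. Lung cancer cell lines in 1536-well plates had been treated by pin tool the day after seeding with one drug alone or a fixed anchor-drug dose plus five library-drug doses (not always all listed) in √10 steps, and nuclei were counted on 4× images. Relative viability is the ratio of nuclei in treated wells to nuclei in vehicle wells, taken as the median of duplicate plates.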

NCI-H23 = system: NCI-H23
How it was run: as §1

NCI-H1915 = system: NCI-H1915
How it was run: as §1

HOP-62 = system: HOP-62
How it was run: as §1

NCI-H460 = system: NCI-H460
How it was run: as §1

CAL-12T = system: CAL-12T
How it was run: as §1

LCLC-103H = system: LCLC-103H
How it was run: as §1

NCI-H1755 = system: NCI-H1755
How it was run: as §1

NCI-H727 = system: NCI-H727
How it was run: as §1

A-427 = system: A-427
How it was run: as §1

NCI-H1792 = system: NCI-H1792
How it was run: as §1

HCC-827 = system: HCC-827
How it was run: as §1

SW 1573 = system: SW 1573
How it was run: as §1

SK-LU-1 = system: SK-LU-1
How it was run: as §1

HARA = system: HARA
How it was run: as §1

NCI-H2009 = system: NCI-H2009
How it was run: as §1

HCC-366 = system: HCC-366
How it was run: as §1

COR-L 105 = system: COR-L 105
How it was run: as §1

NCI-H2228 = system: NCI-H2228
How it was run: as §1

NCI-H1437 = system: NCI-H1437
How it was run: as §1

SMILES: O=c1cc(-c2cccc3c2Sc2ccccc2S3)oc(N2CCOCC2)c1 + C[C@@H](Oc1cc(-c2cnn(C3CCNCC3)c2)cnc1N)c1c(Cl)ccc(F)c1Cl [Crizotinib] (partner 1 µM)
- relative viability (EMC-BAC-2; first compound 0.08 µM): 0.856
- relative viability (EMC-BAC-2; first compound 0.253 µM): 0.753
- relative viability (EMC-BAC-2; first compound 0.8 µM): 0.841
- relative viability (EMC-BAC-2; first compound 2.53 µM): 0.784
- relative viability (EMC-BAC-2; first compound 8 µM): 0.817
- relative viability (NCI-H23; first compound 0.08 µM): 0.442
- relative viability (NCI-H23; first compound 0.253 µM): 0.564
- relative viability (NCI-H23; first compound 0.8 µM): 0.626
- relative viability (NCI-H23; first compound 2.53 µM): 0.572
- relative viability (NCI-H23; first compound 8 µM): 0.522
- relative viability (NCI-H1915; first compound 0.08 µM): 1.02
- relative viability (NCI-H1915; first compound 0.253 µM): 0.987
- relative viability (NCI-H1915; first compound 0.8 µM): 1.02
- relative viability (NCI-H1915; first compound 2.53 µM): 0.905
- relative viability (NCI-H1915; first compound 8 µM): 0.847
- relative viability (HOP-62; first compound 0.08 µM): 0.842
- relative viability (HOP-62; first compound 0.253 µM): 0.998
- relative viability (HOP-62; first compound 0.8 µM): 0.989
- relative viability (HOP-62; first compound 2.53 µM): 0.653
- relative viability (HOP-62; first compound 8 µM): 0.904
- relative viability (NCI-H460; first compound 0.08 µM): 1
- relative viability (NCI-H460; first compound 0.8 µM): 0.761
- relative viability (NCI-H460; first compound 2.53 µM): 1.12
- relative viability (NCI-H460; first compound 8 µM): 1.79
- relative viability (CAL-12T; first compound 0.08 µM): 0.729
- relative viability (CAL-12T; first compound 0.253 µM): 0.686
- relative viability (CAL-12T; first compound 0.8 µM): 0.85
- relative viability (CAL-12T; first compound 2.53 µM): 0.6
- relative viability (CAL-12T; first compound 8 µM): 0.731
- relative viability (LCLC-103H; first compound 0.08 µM): 1.06
- relative viability (LCLC-103H; first compound 0.253 µM): 1.07
- relative viability (LCLC-103H; first compound 0.8 µM): 1.06
- relative viability (LCLC-103H; first compound 2.53 µM): 1.05
- relative viability (LCLC-103H; first compound 8 µM): 1.05
- relative viability (NCI-H1755; first compound 0.08 µM): 0.961
- relative viability (NCI-H1755; first compound 0.253 µM): 0.974
- relative viability (NCI-H1755; first compound 0.8 µM): 0.937
- relative viability (NCI-H1755; first compound 2.53 µM): 0.878
- relative viability (NCI-H1755; first compound 8 µM): 0.85
- relative viability (NCI-H727; first compound 0.253 µM): 0.892
- relative viability (NCI-H727; first compound 2.53 µM): 0.724
- relative viability (NCI-H727; first compound 8 µM): 0.868
- relative viability (A-427; first compound 0.08 µM): 0.988
- relative viability (A-427; first compound 0.253 µM): 0.661
- relative viability (A-427; first compound 0.8 µM): 1.02
- relative viability (A-427; first compound 2.53 µM): 0.86
- relative viability (A-427; first compound 8 µM): 0.791
- relative viability (NCI-H1792; first compound 0.253 µM): 1.64
- relative viability (NCI-H1792; first compound 0.8 µM): 0.987
- relative viability (NCI-H1792; first compound 2.53 µM): 0.896
- relative viability (NCI-H1792; first compound 8 µM): 1.19
- relative viability (HCC-827; first compound 0.08 µM): 0.943
- relative viability (HCC-827; first compound 0.253 µM): 0.921
- relative viability (HCC-827; first compound 0.8 µM): 0.997
- relative viability (HCC-827; first compound 2.53 µM): 0.8
- relative viability (HCC-827; first compound 8 µM): 0.967
- relative viability (SW 1573; first compound 0.08 µM): 0.76
- relative viability (SW 1573; first compound 0.253 µM): 0.852
- relative viability (SW 1573; first compound 0.8 µM): 0.886
- relative viability (SW 1573; first compound 2.53 µM): 0.794
- relative viability (SW 1573; first compound 8 µM): 0.849
- relative viability (SK-LU-1; first compound 0.08 µM): 0.812
- relative viability (SK-LU-1; first compound 0.253 µM): 1.04
- relative viability (SK-LU-1; first compound 0.8 µM): 1.14
- relative viability (SK-LU-1; first compound 2.53 µM): 0.905
- relative viability (SK-LU-1; first compound 8 µM): 0.849
- relative viability (HARA; first compound 0.08 µM): 0.971
- relative viability (HARA; first compound 0.253 µM): 1.12
- relative viability (HARA; first compound 0.8 µM): 1
- relative viability (HARA; first compound 2.53 µM): 1.05
- relative viability (HARA; first compound 8 µM): 1.28
- relative viability (NCI-H2009; first compound 0.08 µM): 1.02
- relative viability (NCI-H2009; first compound 0.253 µM): 1.02
- relative viability (NCI-H2009; first compound 0.8 µM): 1.05
- relative viability (NCI-H2009; first compound 2.53 µM): 0.957
- relative viability (NCI-H2009; first compound 8 µM): 1.03
- relative viability (HCC-366; first compound 0.08 µM): 0.53
- relative viability (HCC-366; first compound 0.253 µM): 0.731
- relative viability (HCC-366; first compound 0.8 µM): 0.725
- relative viability (HCC-366; first compound 2.53 µM): 0.498
- relative viability (HCC-366; first compound 8 µM): 1.1
- relative viability (COR-L 105; first compound 0.08 µM): 0.833
- relative viability (COR-L 105; first compound 0.253 µM): 0.706
- relative viability (COR-L 105; first compound 0.8 µM): 0.752
- relative viability (COR-L 105; first compound 2.53 µM): 0.798
- relative viability (COR-L 105; first compound 8 µM): 1.07
- relative viability (NCI-H2228; first compound 0.08 µM): 0.407
- relative viability (NCI-H2228; first compound 0.253 µM): 0.506
- relative viability (NCI-H2228; first compound 0.8 µM): 0.399
- relative viability (NCI-H2228; first compound 2.53 µM): 0.394
- relative viability (NCI-H2228; first compound 8 µM): 0.354
- relative viability (NCI-H1437; first compound 0.08 µM): 1.09
- relative viability (NCI-H1437; first compound 0.253 µM): 1.18
- relative viability (NCI-H1437; first compound 0.8 µM): 1.24
- relative viability (NCI-H1437; first compound 2.53 µM): 0.899
- relative viability (NCI-H1437; first compound 8 µM): 1.07
